Measured values: PubChem BioAssay AID328 (DTP/NCI, 2004)
Several values for one entry are separate records, joined by “and”; a condition that tells them apart may be missing. Equal values may be shown once. Inconclusive results and toxic doses are left out. How the source made its calls: active means survival T/C of 150% or more; inactive means T/C below 125% in these data.

System: BDF1 mice, P388 leukemia ip, median survival T/C
Assay: NCI In Vivo Anticancer Drug Screen. Data for tumor model P388 Leukemia (intraperitoneal) in B6D2F1 (BDF1) mice
Conditions: endpoint: median survival time, higher = longer survival
Method in brief: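 Mice carrying the transplantable tumour receive compound or vehicle. Survival is followed in each arm, and the treated measure is divided by the vehicle measure.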

[1] = dose: 100.0 mg/kg/injection, schedule: Q04DX003 (ip), vehicle: saline
[2] = dose: 200.0 mg/kg/injection, schedule: Q04DX003 (ip), vehicle: saline
[3] = dose: 400.0 mg/kg/injection, schedule: Q04DX003 (ip), vehicle: saline
[4] = dose: 100.0 mg/kg/injection, schedule: Q01DX009 (ip), vehicle: saline with Tween-80
[5] = dose: 100.0 mg/kg/injection, schedule: Q04DX003 (ip), vehicle: saline with Tween-80
[6] = dose: 200.0 mg/kg/injection, schedule: Q01DX009 (ip), vehicle: saline with Tween-80
[7] = dose: 200.0 mg/kg/injection, schedule: Q04DX003 (ip), vehicle: saline with Tween-80
[8] = dose: 400.0 mg/kg/injection, schedule: Q01DX009 (ip), vehicle: saline with Tween-80
[9] = dose: 400.0 mg/kg/injection, schedule: Q04DX003 (ip), vehicle: saline with Tween-80
[10] = dose: 50.0 mg/kg/injection, schedule: Q01DX009 (ip), vehicle: saline with Tween-80
[11] = dose: 50.0 mg/kg/injection, schedule: Q01DX009 (ip), vehicle: water
[12] = dose: 100.0 mg/kg/injection, schedule: Q01DX009 (ip), vehicle: water
[13] = dose: 100.0 mg/kg/injection, schedule: Q04DX003 (ip), vehicle: water
[14] = dose: 200.0 mg/kg/injection, schedule: Q01DX009 (ip), vehicle: water
[15] = dose: 12.5 mg/kg/injection, schedule: Q01DX009 (ip), vehicle: Klucel (hydroxypropylcellulose) (HPC)
[16] = dose: 25.0 mg/kg/injection, schedule: Q01DX009 (ip), vehicle: Klucel (hydroxypropylcellulose) (HPC)
[17] = dose: 100.0 mg/kg/injection, schedule: Q04DX003 (ip), vehicle: Klucel (hydroxypropylcellulose) (HPC)
[18] = dose: 200.0 mg/kg/injection, schedule: Q04DX003 (ip), vehicle: Klucel (hydroxypropylcellulose) (HPC)
[19] = dose: 400.0 mg/kg/injection, schedule: Q04DX003 (ip), vehicle: Klucel (hydroxypropylcellulose) (HPC)
[20] = dose: 100.0 mg/kg/injection, schedule: Q01DX009 (ip), vehicle: saline
[21] = dose: 200.0 mg/kg/injection, schedule: Q01DX009 (ip), vehicle: saline
[22] = dose: 100.0 mg/kg/injection, schedule: Q01DX001 (ip), vehicle: saline with Tween-80
[23] = dose: 200.0 mg/kg/injection, schedule: Q01DX001 (ip), vehicle: saline with Tween-80
[24] = dose: 400.0 mg/kg/injection, schedule: Q01DX001 (ip), vehicle: saline with Tween-80
[25] = dose: 50.0 mg/kg/injection, schedule: Q01DX009 (ip), vehicle: saline
[26] = dose: 12.5 mg/kg/injection, schedule: Q01DX009 (ip), vehicle: saline

Measured: T/C

CN(N)c1cc(=O)n(C)c(=O)n1C
inactive: [1] 110 % of control | [2] 103 % of control | [3] 101 % of control

CCN(Cc1ccccc1)c1ccc(/C=C/c2nccc3ccccc23)cc1
inactive: dose: 100.0 mg/kg/injection, schedule: Q04DX002 (ip), vehicle: saline with Tween-80 116 % of control | dose: 200.0 mg/kg/injection, schedule: Q04DX002 (ip), vehicle: saline with Tween-80 116 % of control | dose: 266.0 mg/kg/injection, schedule: Q04DX002 (ip), vehicle: saline with Tween-80 89 % of control | dose: 400.0 mg/kg/injection, schedule: Q04DX002 (ip), vehicle: saline with Tween-80 123 % of control | dose: 600.0 mg/kg/injection, schedule: Q04DX002 (ip), vehicle: saline with Tween-80 117 % of control

CCOC(=O)C12CC=CC(CCC1)C2=O (configuration not stated) (tested in a mixture with another compound)
inactive: [4] 100 % of control | [5] 90 % of control | [6] 104 % of control | [7] 95 % of control | [8] 90 % of control | [9] 104 % of control

CCCCCCCC(=O)CCCCC
inactive: [5] 100 % of control | [7] 95 % of control | [9] 91 % of control

COC(=O)c1c(C)cc(OC(=O)c2c(C)c(Cl)c(O)c(Cl)c2O)cc1O
inactive: dose: 1.25 mg/kg/injection, schedule: Q01DX009 (ip), vehicle: Klucel (hydroxypropylcellulose) (HPC) 91 % of control | dose: 2.5 mg/kg/injection, schedule: Q01DX009 (ip), vehicle: Klucel (hydroxypropylcellulose) (HPC) 114 % of control | dose: 5.0 mg/kg/injection, schedule: Q01DX009 (ip), vehicle: Klucel (hydroxypropylcellulose) (HPC) 101 % of control | dose: 10.0 mg/kg/injection, schedule: Q01DX009 (ip), vehicle: Klucel (hydroxypropylcellulose) (HPC) 108 % of control | dose: 20.0 mg/kg/injection, schedule: Q01DX009 (ip), vehicle: Klucel (hydroxypropylcellulose) (HPC) 97 % of control

Cn1c(C(C)(C)O)cnc1[N+](=O)[O-]
inactive: dose: 12.5 mg/kg/injection, schedule: Q01DX009 (ip), vehicle: saline with Tween-80 105 % of control | dose: 25.0 mg/kg/injection, schedule: Q01DX009 (ip), vehicle: saline with Tween-80 105 % of control | [10] 110 % of control

CCOC(=O)/C(=C\c1ccc2c(c1)OCO2)NC(=O)c1ccccc1
inactive: dose: 100.0 mg/kg/injection, schedule: Q01DX001 (ip), vehicle: Klucel (hydroxypropylcellulose) (HPC) 104 % of control | [1] 112 % of control | dose: 200.0 mg/kg/injection, schedule: Q01DX001 (ip), vehicle: Klucel (hydroxypropylcellulose) (HPC) 100 % of control | [2] 95 % of control | dose: 400.0 mg/kg/injection, schedule: Q01DX001 (ip), vehicle: Klucel (hydroxypropylcellulose) (HPC) 100 % of control | [3] 95 % of control

CS(=O)CC(O)(c1ccccc1)c1ccco1 (configuration not stated)
inactive: [10] 116 % of control | [4] 107 % of control | [6] 106 % of control

CP12(OC(=O)c3ccccc31)OC(=O)c1ccccc12
inactive: [10] 91 % of control | [4] 91 % of control | [6] 96 % of control

CC(C)(N)CCC(C)(C)NCCCN
inactive: [11] 92 % of control | [12] 103 % of control | [13] 100 % of control | [14] 106 % of control | dose: 200.0 mg/kg/injection, schedule: Q04DX003 (ip), vehicle: water 103 % of control | dose: 400.0 mg/kg/injection, schedule: Q04DX003 (ip), vehicle: water 92 % of control

CSC1CCCC(=O)C1 (configuration not stated)
inactive: [15] 100 % of control | [16] 105 % of control | [17] 100 % of control | [18] 95 % of control | [19] 90 % of control

COc1ccc(C(C)=O)c(OC)c1C
inactive: [20] 104 % of control | [21] 96 % of control | dose: 400.0 mg/kg/injection, schedule: Q01DX009 (ip), vehicle: saline 100 % of control

OC(COc1ccccc1)CC(O)(C(F)(F)F)C(F)(F)F (configuration not stated)
inactive: [22] 95 % of control | [23] 104 % of control | [24] 104 % of control

CN(C)c1ccc(C(=O)O)cn1
inactive: [25] 100 % of control | [20] 101 % of control | [1] 102 % of control | dose: 200.0 mg/kg/injection, schedule: Q01DX007 (ip), vehicle: saline 110 % of control | [21] 92 % of control | [2] 100 % of control | dose: 300.0 mg/kg/injection, schedule: Q01DX007 (ip), vehicle: saline 108 % of control | dose: 400.0 mg/kg/injection, schedule: Q01DX007 (ip), vehicle: saline 100 % of control | [3] 109 % of control | dose: 500.0 mg/kg/injection, schedule: Q01DX007 (ip), vehicle: saline 106 % of control | dose: 600.0 mg/kg/injection, schedule: Q01DX007 (ip), vehicle: saline 110 % of control

CCCCCCC(C)NCC(O)COc1cccc(C)c1 (configuration not stated)
inactive: dose: 3.12 mg/kg/injection, schedule: Q01DX009 (ip), vehicle: Klucel (hydroxypropylcellulose) (HPC) 113 % of control | [15] 116 % of control | [16] 120 % of control

O=C(NCCBr)Nc1cccc2c1Cc1ccccc1-2
inactive: [17] 100 % of control | [18] 100 % of control | [19] 95 % of control

O=C(/C=C/c1ccc(Cl)cc1)c1ccc(Cl)cc1
inactive: [4] 100 % of control | [6] 90 % of control | [8] 90 % of control

C/C=C/CCCCCCCC
inactive: [22] 104 % of control | [23] 104 % of control | [24] 119 % of control

CC(C)(C)OC(=O)NC(CC(Cc1ccccc1)C(N)=O)C(=O)N1CCCC1C(=O)OCc1ccccc1 (configuration not stated)
inactive: dose: 50.0 mg/kg/injection, schedule: Q01DX005 (ip), vehicle: saline with Tween-80 102 % of control | dose: 100.0 mg/kg/injection, schedule: Q01DX005 (ip), vehicle: saline with Tween-80 95 % of control | dose: 200.0 mg/kg/injection, schedule: Q01DX005 (ip), vehicle: saline with Tween-80 98 % of control

O=[N+]([O-])c1ccccc1CN1c2ccccc2N=C2c3ccccc3CC21 (configuration not stated)
inactive: dose: 100.0 mg/kg/injection, schedule: Q04DX003 (ip), vehicle: saline sonified 116 % of control | dose: 200.0 mg/kg/injection, schedule: Q04DX003 (ip), vehicle: saline sonified 100 % of control | dose: 400.0 mg/kg/injection, schedule: Q04DX003 (ip), vehicle: saline sonified 91 % of control

Cc1cccc(N)n1 (tested in a mixture with another compound)
inactive: [26] 105 % of control | dose: 25.0 mg/kg/injection, schedule: Q01DX009 (ip), vehicle: saline 94 % of control | [25] 89 % of control

C/C(CC(=O)O)=C(\C)C(=O)O
inactive: dose: 25.0 mg/kg/injection, schedule: Q01DX009 (ip), vehicle: water 100 % of control | [11] 100 % of control | dose: 100.0 mg/kg/injection, schedule: Q01DX001 (ip), vehicle: saline 96 % of control | [12] 97 % of control and 103 % of control | [13] 108 % of control | dose: 200.0 mg/kg/injection, schedule: Q01DX001 (ip), vehicle: saline 100 % of control | [14] 112 % of control | dose: 400.0 mg/kg/injection, schedule: Q01DX001 (ip), vehicle: saline 100 % of control | dose: 400.0 mg/kg/injection, schedule: Q01DX009 (ip), vehicle: water 105 % of control

CC(C(=O)O)=C(c1ccccc1)c1ccccc1
inactive: [22] 100 % of control | [23] 100 % of control | [24] 100 % of control

O=C1OC(Cc2ccccc2)(c2ccccc2)c2ccccc21 (configuration not stated)
inactive: [10] 90 % of control | [4] 90 % of control

c1ccc(C(c2ccccc2)[n+]2ccccc2)cc1
inactive: dose: 3.13 mg/kg/injection, schedule: Q01DX009 (ip), vehicle: saline 91 % of control | [26] 114 % of control
